Laboratory results published in ChEMBL document CHEMBL1697781, “Assessment of the health effects of chemicals in humans: II. Construction of an adverse effects database for QSAR modeling” (Curr Drug Discov Technol, 2004).

Columns and labels:
Conditions in all cases: human; call rule not given here
Hepatotoxicity [1] = assay: FDA HLAED, lactate dehydrogenase (LDH) increase
Hepatotoxicity [2] = assay: FDA HLAED, alkaline phosphatase increase
Hepatotoxicity [3] = assay: FDA HLAED, serum glutamic pyruvic transaminase (SGPT) increase
Hepatotoxicity [4] = assay: FDA HLAED, gamma-glutamyl transferase (GGT) increase
Hepatotoxicity [5] = assay: FDA HLAED, liver enzyme composite activity
Hepatotoxicity [6] = assay: FDA HLAED, serum glutamic oxaloacetic transaminase (SGOT) increase
Wherever GGT Increase - Index Value is given: reference of the scale not given here.
Wherever LDH Increase - Index Value is given: reference of the scale not given here.

Row | Compound | LDH Increase - Activity Score (Hepatotoxicity [1]) | LDH Increase - Index Value (Hepatotoxicity [1]) | LDH Increase - Number of Reports (Hepatotoxicity [1]) | Alkaline Phosphatase Increase - Activity Score (Hepatotoxicity [2]) | Alkaline Phosphatase Increase - Index Value (Hepatotoxicity [2]) | Alkaline Phosphatase Increase - Number of Reports (Hepatotoxicity [2]) | SGPT Increase - Activity Score (Hepatotoxicity [3]) | SGPT Increase - Index Value (Hepatotoxicity [3]) | SGPT Increase - Number of Reports (Hepatotoxicity [3]) | GGT Increase - Activity Score (Hepatotoxicity [4]) | GGT Increase - Index Value (Hepatotoxicity [4]) | GGT Increase - Number of Reports (Hepatotoxicity [4]) | SGOT Increase - Activity Score (Hepatotoxicity [6]) | SGOT Increase - Index Value (Hepatotoxicity [6]) | SGOT Increase - Number of Reports (Hepatotoxicity [6]) | Composite Activity - Active (Hepatotoxicity [5]) | Composite Activity - Marginal (Hepatotoxicity [5]) | Composite Activity - Score (Hepatotoxicity [5]) | other results
1 | O=C(O)COCCN1CCN(C(c2ccccc2)c2ccc(Cl)cc2)CC1 (configuration not stated) [CETIRIZINE] | Inactive | 1 | < 4 | Inactive | 0 | < 4 | Inactive | 1.3 | >= 4 | Inactive | 0.6 | < 4 | Inactive | 1 | < 4 | – | – | – | Composite Activity - Active (Hepatotoxicity [5]; Liver): 0; Composite Activity - Marginal (Hepatotoxicity [5]; Liver): 0; Composite Activity - Score (Hepatotoxicity [5]; Liver): Inactive
2 | C[C@H](CCC(=O)O)[C@H]1CC[C@H]2[C@@H]3[C@H](O)C[C@@H]4C[C@H](O)CC[C@]4(C)[C@H]3CC[C@]12C [CHENODIOL] | Inactive | 0 | < 4 | Inactive | 0 | < 4 | Inactive | 0 | < 4 | Inactive | 0 | < 4 | Inactive | 0 | < 4 | 0 | 0 | Inactive | –
3 | Cc1cc(C2CCCCC2)n(O)c(=O)c1 [CICLOPIROX] | Inactive | 0 | < 4 | Inactive | 0 | < 4 | Inactive | 0 | < 4 | Inactive | 0 | < 4 | Inactive | 0 | < 4 | 0 | 0 | Inactive | –
4 | Nc1ccn(C[C@@H](CO)OCP(=O)(O)O)c(=O)n1.O.O [CIDOFOVIR] | Inactive | 46.1 | < 4 | Active | 92.2 | < 4 | Inactive | 0 | < 4 | Inactive | 0 | < 4 | Inactive | 46.1 | < 4 | 1 | 0 | Inactive | –
5 | CCn1nc(C(=O)O)c(=O)c2cc3c(cc21)OCO3 [CINOXACIN] | Inactive | 0 | < 4 | Inactive | 0 | < 4 | Active | 15.1 | >= 4 | Inactive | 0 | < 4 | Active | 16.9 | >= 4 | 2 | 0 | Active | –
6 | O=C(O)c1cn(C2CC2)c2cc(N3CCNCC3)c(F)cc2c1=O [CIPROFLOXACIN] | Inactive | 0.9 | >= 4 | Inactive | 2.3 | >= 4 | Inactive | 2.1 | >= 4 | Inactive | 0.8 | >= 4 | Marginally Active | 3.1 | >= 4 | – | – | – | Composite Activity - Active (Hepatotoxicity [5]; Liver): 0; Composite Activity - Marginal (Hepatotoxicity [5]; Liver): 1; Composite Activity - Score (Hepatotoxicity [5]; Liver): Inactive
7 | COc1cc(N)c(Cl)cc1C(=O)NC1CCN(CCCOc2ccc(F)cc2)CC1OC (configuration not stated) [CISAPRIDE] | Inactive | 0.1 | < 4 | Inactive | 0.2 | >= 4 | Inactive | 0.4 | >= 4 | Inactive | 0.2 | < 4 | Inactive | 0.3 | >= 4 | 0 | 0 | Inactive | –
8 | Nc1nc(Cl)nc2c1ncn2[C@H]1C[C@H](O)[C@@H](CO)O1 [CLADRIBINE] | Inactive | 0 | < 4 | Inactive | 16.2 | < 4 | Inactive | 16.2 | < 4 | Inactive | 8.1 | < 4 | Inactive | 16.2 | < 4 | 0 | 0 | Inactive | –
9 | CC[C@H]1OC(=O)[C@H](C)[C@@H](O[C@H]2C[C@@](C)(OC)[C@@H](O)[C@H](C)O2)[C@H](C)[C@@H](O[C@@H]2O[C@H](C)C[C@H](N(C)C)[C@H]2O)[C@](C)(OC)C[C@@H](C)C(=O)[C@H](C)[C@@H](O)[C@]1(C)O [CLARITHROMYCIN] | Inactive | 1.4 | >= 4 | Marginally Active | 3.1 | >= 4 | Marginally Active | 3.3 | >= 4 | Inactive | 1.5 | >= 4 | Marginally Active | 3.8 | >= 4 | 0 | 3 | Inactive | –
